Series [1] concerns wild type mice and R62 mice. The series is described as follows: Tolerability of Congo red in mice. The format is in vivo. The method, then:
The latter procedure involved administration of 0.25 μl of the drug (1 mg/ml in 0.4% DMSO) per hour, for a period of at least 28 days. The treatment began at the latter part of the seventh week. When treatment began, although very little motor symptomology was observed, tremors were becoming apparent. Polyglutamine inclusions were readily detected at the beginning of treatment. The effect of Congo red on the polyglutamine-induced toxicity in muscle strength in the animal model R62 was quantified by the use of a rotorod.
In addition, the ability of Congo red to inhibit the formation as well as to disrupt preformed polyglutamine oligomers allowed us to examine the role of polyglutamine aggregates in neuronal dysfunction and degeneration characteristic of polyglutamine expansion diseases. In these studies, we used the animal model of Huntington's disease (R62), which expresses the truncated form of huntingtin with 139 CAG repeats Mangiarini et al. (supra). We took advantage of our finding that in addition to inhibiting polyglutamine oligomerization, Congo red also disrupts pre-formed oligomers, thus allowing assessment of the impact of Congo red on disease progression after formation of polyglutamine aggregates and the onset of symptoms. R62 transgenic mice and CBAxC57B1/6 F1 wild type littermates were obtained from Jackson Laboratories (Bar Harbor, Me.) at the age of five weeks. […]

The test system of series [2] is HeLa cells transfected with Q79-GFP. The series is described as follows: Cellular ATP levels (ATPLite) in Q79 expressing HeLa cells. It is filed as cell-based. The method, then: We also investigated whether Congo red prevented other cellular events during cell death, including ATP depletion, caspase activation, and protein synthesis inhibition. HeLa cells were transfected with the Q79-GFP construct. Forty-eight hours later, the viability of cells expressing expanded polyglutamine repeats was determined by measuring cellular ATP levels, suing an ATPLite™ kit, according to the directions provided by the manufacturer (Packard, Co.) (FIG. 5A).
To determine the effect of Congo red (100 μM) on polyglutamine-induced cell toxicity. HeLa cells were transiently transfected with Q79-GFP, and six hours later were administered various concentrations of Congo red. Cell viability was assayed 72 hours after transfection, by measuring the level of ATP in each sample. ATP levels in cells expressing Q79 were determined by using the ATPLite™ kit as recommended by the manufacturer (Packard, Inc.). Briefly, cells were transfected with Q79 and treated 6 hours after transfection. Forty-two hours later, the levels of ATP were determined. (FIG. 5C).
A high-throughput method for identifying compounds that decrease cell toxicity or death has been designed. In this method, cells were seeded at 2×10^5 cells in 100 mm dishes. The next day the plated cells were transiently transfected with a plasmid encoding an expanded polyglutamine repeat, for example, Q79. Three hours later, transfection efficiency was assessed. Plates containing cells having 10-20% transfection efficiency at this 3 hour time point were trypsinized and re-plated at 600 or at 1500 cells per well in 384 well plates with clear bottoms. After 6 hours, the candidate compounds were added to the multi-well plates. The cells were cultured for 48 hours and ATP levels were determined using an ATPLite™ kit. Data was then expressed in either arbitrary units, or as relative ratio of ATP levels in Q79 transfected cells in compound-treated relative to vehicle-treated samples.
Derivatives of Congo red (commercially available from Sigma/Aldrich) were tested for their ability to alter cell toxicity and death by measuring ATP depletion and luciferase expression. The assay was carried out as described above for the high-throughput identification of compounds. Briefly, HeLa cells were transiently transfected with a Q79/GFP plasmid and were subsequently treated with various concentrations of Congo red, or 25 μM of each of Direct Orange 6, Direct Red 1, Direct Orange 1, Direct Black 51, Direct Orange 8, Direct Yellow 26, Direct Yellow 28, or Direct Blue 158. Drug treatment continued for 6 hours and then 48 hours later, ATP levels were measured in these cells and compared to the ATP levels in cells that were transiently transfected with GFP only, and also received the compound.
In general terms: ATP-based viability assays read luminescence as a measure of living cells.

Series [3] concerns non-transfected HeLa cells. Description: Total cellular protein degradation. The following applies: Congo red 100 μM, ZVAD 100 μM, MG132 10 μM; H3-tyrosine release, 0 to 180 minutes. The format is cell-based. On the procedure: FIG. 8C is a graph of the effect of effect of Congo red, ZVAD, or the proteosome inhibitor MG132 on total cellular protein degradation in non-transfected HeLa cells.
To rule out the possibility that Congo red may have an effect on protein degradation in general, we tested the effect of Congo red on proteosome degradation. Rates of total cellular protein degradation experiments, from cells seeded in 12 well dishes at 2×10^4, treated with Congo red (100 μM), ZVAD (100 μM), or the proteosome inhibitor MG132 (10 μM) and labeled with 5 μCi/ml of H^3-tyrosine for 1 hour. One hundred microliter culture medium aliquots were collected at 0, 30, 60, 90, 120, and 180 minute time points, and the levels of H^3-tyrosine were determined using an LS6000 scintillation counter (Beckman, Co).

These results are taken from patent US20020155172A1, “Methods and compounds for decreasing cell toxicity or death” (priority 2000, published 2002).

Structures are written as SMILES.

For `Nc1c(/N=N/c2ccc(-c3ccc(/N=N/c4cc(S(=O)(=O)O)c5ccccc5c4N)cc3)cc2)cc(S(=O)(=O)O)c2ccccc12` [Congo red, diphenyldiazo-bis-alpha-napthylaminesulfonate], in series [1] (IP or ICV infusion, normal wild type mice or pre- or post-symptomatic R62 mice), the “gross morphological abnormalities or symptoms” value is “no gross morphological abnormalities or induction of any obvious symptoms”. Further, in series [1] (intraperitoneal injection up to 13 mg/kg every 48 hours for two weeks), the drug toxicity result is “no obvious drug toxicity”. Further, the “protection from polyglutamine repeat-induced cell death (ATP levels)” value in series [2] (25 or 50 μM, Q79-GFP) is “very effective at protecting cells”. Also, in series [2] (HA-tagged Q79-GFP, caspase-8 experiment), the ATP loss entry is recorded as “significantly inhibited ATP loss”. Moreover, the “concentration at which protection from polyglutamine repeat-induced cell death begins (ATP levels)” value in series [2] (Q79-GFP, treated six hours after transfection) came to 12 µM. Further, the general protein degradation result in series [3] is recorded as “neither Congo red nor ZVAD had any effect”.
